Measurements: the OPERA property sets (Mansouri et al. 2018)

Settings: not given
For `O=c1n(CCO)c(=O)n(CCO)c(=O)n1CCO`, the ready biodegradability was “not readily biodegradable”. Compound `CCC(C)c1cc([N+](=O)[O-])cc([N+](=O)[O-])c1O` (stereo unspecified) has a boiling point of 332 °C, a log10 Koc (L/kg) of 2.7 and a melting point of 40 °C. The ready biodegradability was “not readily biodegradable”. `CCCCCOC(=O)COc1cc(N2C(=O)C3=C(CCCC3)C2=O)c(F)cc1Cl` gave a melting point of 89 °C. Compound `CN[C@H](C)[C@@H](O)c1ccc(O)cc1` (racemic) has a melting point of 153 °C. Compound `O=[N+]([O-])c1ccc(CBr)cc1` has a melting point of 99 °C. `C=Cc1cccc(CC)c1` showed a boiling point of 190 °C, a log10 vapour pressure (mmHg) of -0.0947 and a melting point of -101 °C. The ready biodegradability was “not readily biodegradable”. Compound `CCCCOCc1ccco1` has a boiling point of 190 °C. With `CC(C)(C)N(CCO)CCO` the melting point was 42 °C. In the case of `Clc1cc2ccccc2c(Cl)c1Cl`, the log10 Koa is reported as 7.66 and the log10 vapour pressure (mmHg) is reported as -4.7. With `O=C(O)CCC(=O)Nc1ccc(S(=O)(=O)Nc2nccs2)cc1` the melting point was 194 °C. Compound `Cc1cc2ccccc2cc1C` has a boiling point of 268 °C, a log10 Henry constant (atm·m³/mol) of -3.04 and a log10 biodegradation half-life (days) of 1.18. For the same compound, the log10 vapour pressure (mmHg) was -2.96, the melting point was 105 °C and the ready biodegradability was “readily biodegradable”. For `CCCCCCCCCCCCCCCCCCOP(OCCCCCCCCCCCCCCCCCC)OCCCCCCCCCCCCCCCCCC`, the ready biodegradability was “readily biodegradable”. For `Clc1ccc(Cl)c2ncccc12`, the melting point was 97.5 °C. In the case of `COCC(=O)O`, the boiling point is reported as 204 °C, the log10 vapour pressure (mmHg) is reported as -0.839 and the melting point is reported as 7.7 °C. In the case of `CC(C)(C)c1cc(Cn2c(=O)n(Cc3cc(C(C)(C)C)c(O)c(C(C)(C)C)c3)c(=O)n(Cc3cc(C(C)(C)C)c(O)c(C(C)(C)C)c3)c2=O)cc(C(C)(C)C)c1O`, the ready biodegradability is reported as “not readily biodegradable”. Compound `O=C1OCCO1` has a boiling point of 248 °C, a log10 vapour pressure (mmHg) of -2.01 and a melting point of 39.5 °C. For the same compound, the ready biodegradability was “readily biodegradable”. With `CCC(C)C(C(=O)OCC[N+](C)(CC)CC)c1ccccc1.[Br-]` (stereo unspecified) the melting point was 102 °C. Compound `CC1(C)CC[C@]2(C(=O)O)CC[C@]3(C)C(=CC[C@@H]4[C@@]5(C)CC[C@H](O)[C@@](C)(C=O)[C@@H]5CC[C@]43C)[C@@H]2C1` has a melting point of 275 °C. Compound `CC(=O)OCC(=O)[C@@]12OC(C)(C)O[C@@H]1C[C@H]1[C@@H]3C[C@H](F)C4=CC(=O)C=C[C@]4(C)[C@@]3(F)[C@@H](O)C[C@@]12C` has a melting point of 309 °C. Compound `CCCCCCCCCCCCCCCN` has a boiling point of 308 °C and a melting point of 37.3 °C. Work on `CC(=O)Nc1c(C)cccc1C` yielded a melting point of 183 °C. In the case of `C[C@@H](N)c1ccccc1`, the ready biodegradability is reported as “not readily biodegradable”. `CCCCOS(=O)OCCCC` gave a boiling point of 230 °C. `Brc1ccoc1` gave a boiling point of 103 °C. With `CC1CCC(O)CC1C` (stereo unspecified) the boiling point was 189 °C. `CCC1(c2ccccc2)CCC(=O)NC1=O` (stereo unspecified) gave a melting point of 84 °C. `C=C(Br)CBr` gave a boiling point of 141 °C and a log10 vapour pressure (mmHg) of 0.88. Work on `O=[N+]([O-])c1cccc2cccc(Cl)c12` yielded a melting point of 95.8 °C. For `O=C(O)CNc1ccccc1`, the melting point was 128 °C. With `Cc1cccc(N)c1C` the boiling point was 222 °C, the log10 vapour pressure (mmHg) was -1.12 and the ready biodegradability was “not readily biodegradable”. `COc1cc(Cl)c(Cl)cc1Cl` gave a boiling point of 254 °C and a melting point of 77.5 °C. Work on `CC(C)CC(C)C(C)(C)C` (stereo unspecified) yielded a boiling point of 148 °C. In the case of `Cc1cc(-c2ccc(N)c(C)c2)ccc1N`, the boiling point is reported as 339 °C, the melting point is reported as 132 °C and the ready biodegradability is reported as “not readily biodegradable”. With `Brc1sc(Br)c(Br)c1Br` the boiling point was 326 °C and the melting point was 118 °C. For `Clc1ccccn1`, the boiling point was 170 °C, the log10 vapour pressure (mmHg) was 0.338 and the melting point was -46.5 °C. For the same compound, the ready biodegradability was “not readily biodegradable”. Compound `OCCNc1ccccc1` has a boiling point of 280 °C, a log10 vapour pressure (mmHg) of -2.66 and a melting point of 11 °C. In the case of `O=C1c2ccccc2C(=O)C1C(=O)C(c1ccccc1)c1ccccc1`, the log10 vapour pressure (mmHg) is reported as -9.99 and the melting point is reported as 146 °C. With `O=C=Nc1ccc(Cc2ccc(N=C=O)cc2)cc1` the melting point was 38 °C. For `O=C1C=C(Cl)C(=O)O1`, the boiling point was 196 °C and the melting point was 33 °C. In the case of `CC(=O)[C@@]1(C)CC[C@H]2[C@@H]3C=C(C)C4=CC(=O)CC[C@]4(C)[C@H]3CC[C@@]21C`, the melting point is reported as 144 °C. `CC(C)(Oc1ccc(Cl)cc1)C(=O)O` gave a melting point of 118 °C. `CC(C)(Oc1ccc(CCNC(=O)c2ccc(Cl)cc2)cc1)C(=O)O` showed a melting point of 186 °C. Compound `CCCC(C)(C)C(C)CC` (stereo unspecified) has a boiling point of 161 °C. In the case of `CCc1cccc(CC)c1N(COC)C(=O)CCl`, the log10 Henry constant (atm·m³/mol) is reported as -8.08, the log10 Koc (L/kg) is reported as 2.28 and the melting point is reported as 40 °C. For the same compound, the ready biodegradability was “not readily biodegradable”. In the case of `FC(F)(F)SSC(F)(F)F`, the boiling point is reported as 34.6 °C. In the case of `O=C(O)c1ccc2cc(C(=O)O)ccc2c1`, the ready biodegradability is reported as “not readily biodegradable”. `ON=C(C(=NO)c1ccco1)c1ccco1` gave a melting point of 167 °C. Work on `CCCCCCCC/C=C\CCCCCCCC(=O)OCCCC` yielded a melting point of -26.5 °C. `CCC(Cc1c(I)cc(I)c(N)c1I)C(=O)O` (stereo unspecified) showed a melting point of 155 °C. Work on `Cc1ccccc1CC=O` yielded a boiling point of 221 °C. `CN1Cc2c(N)cccc2C(c2ccccc2)C1` (stereo unspecified) gave a melting point of 180 °C. With `CCc1cccc(C(C)=O)c1` the log10 vapour pressure (mmHg) was 0.357 and the melting point was -20 °C. `CCOCCOCCOC(C)=O` gave a boiling point of 218 °C, a log10 vapour pressure (mmHg) of -1 and a melting point of -25 °C. For the same compound, the ready biodegradability was “readily biodegradable”. For `CCCCCC1C(=O)CCC1CC(=O)OC` (stereo unspecified), the melting point was -10 °C and the ready biodegradability was “readily biodegradable”. In the case of `Cc1ccc(C)c(C(=O)O)c1`, the melting point is reported as 132 °C. For `CCC(CC)COC(=O)CCCCCCCC(=O)OCC(CC)CC`, the melting point was -45 °C. Compound `C=CC(C)CC` (stereo unspecified) has a boiling point of 54.2 °C, a log10 vapour pressure (mmHg) of 2.43 and a melting point of -153 °C. For `O=C(O)c1ccc(C(=O)O)nc1`, the melting point was 254 °C and the ready biodegradability was “not readily biodegradable”. With `C=CC(=C)C` the boiling point was 34 °C, the log10 Koa was 2.06 and the log10 vapour pressure (mmHg) was 2.74. The melting point was -146 °C and the ready biodegradability was “not readily biodegradable”. `CCOC(=O)c1ccncc1` showed a boiling point of 220 °C and a melting point of 23 °C. In the case of `CCCOCC(C)C`, the boiling point is reported as 107 °C. Work on `C=CCCC=C` yielded a boiling point of 59.4 °C, a log10 vapour pressure (mmHg) of 2.34 and a melting point of -141 °C. Work on `CCCOCC(C)OCC(C)O` (stereo unspecified) yielded a boiling point of 212 °C and a melting point of 7.08 °C. `OC[C@@H](O)[C@@H](O)CO` showed a boiling point of 330 °C and a melting point of 122 °C. For `CC1(C)[C@H](C(=O)O[C@H](C#N)c2cccc(Oc3ccccc3)c2)[C@@H]1/C=C(\Cl)C(F)(F)F` (single isomer, unassigned), the melting point was 49.2 °C. `CCC(C)(C)C` gave a boiling point of 49.7 °C, a log10 biodegradation half-life (days) of 1.28 and a log10 vapour pressure (mmHg) of 2.5. It also gave a melting point of -99 °C. For `CCS(=O)(=O)c1nnc(N(C)C(=O)NC)s1`, the melting point was 156 °C. In the case of `CC/C=C/C(C)C`, the boiling point is reported as 85.9 °C and the melting point is reported as -142 °C. `O=C(O)c1nc[nH]c1C(=O)O` showed a melting point of 288 °C. Work on `COC(=O)c1ccccc1S(=O)(=O)NC(=O)Nc1nc(OC(F)F)cc(OC(F)F)n1` yielded a log10 Koc (L/kg) of 1.08 and a melting point of 196 °C. `CN(C)C(=O)OC1=CC(=O)CC(C)(C)C1` gave a melting point of 45.5 °C. `C=CC(C)(O)CCC=C(C)C` (stereo unspecified) gave a boiling point of 198 °C, a log10 Henry constant (atm·m³/mol) of -4.67 and a log10 vapour pressure (mmHg) of -0.796. The ready biodegradability was “readily biodegradable”. `CC(C)(C)c1cccc(O)c1` gave a boiling point of 240 °C, a log10 vapour pressure (mmHg) of -1.7 and a melting point of 42.3 °C. For the same compound, the ready biodegradability was “not readily biodegradable”. `CC(COc1ccccc1)N(CCCl)Cc1ccccc1` (stereo unspecified) gave a melting point of 39 °C. Compound `CCn1cc(C(=O)O)c(=O)c2cc(F)c(N3CCNC(C)C3)c(F)c21` (stereo unspecified) has a melting point of 240 °C. In the case of `C=C(Cl)C(=C)Cl`, the boiling point is reported as 98 °C. `O=C1NC(=O)c2cc([N+](=O)[O-])ccc21` gave a melting point of 201 °C. `C=CCCC(C)=O` gave a boiling point of 130 °C and a log10 vapour pressure (mmHg) of 1.02. `CCCCN(CCCC)SN(C)C(=O)Oc1cccc2c1OC(C)(C)C2` gave a log10 vapour pressure (mmHg) of -6.51. Work on `CNC(=O)OCc1cccc(COC(=O)NC)n1` yielded a melting point of 136 °C. Work on `C=CCC(C(=O)NC(N)=O)C(C)C` (stereo unspecified) yielded a melting point of 194 °C. In the case of `CCCCCl`, the boiling point is reported as 78.6 °C, the log10 Henry constant (atm·m³/mol) is reported as -1.78 and the log10 Koa is reported as 2.72. For the same compound, the log10 vapour pressure (mmHg) was 2.01, the melting point was -123 °C and the ready biodegradability was “not readily biodegradable”.

Same assay, conditions: fish
With `O=c1n(CCO)c(=O)n(CCO)c(=O)n1CCO` the log10 BCF was 0.2. With `CCC(C)c1cc([N+](=O)[O-])cc([N+](=O)[O-])c1O` (stereo unspecified) the log10 BCF was 1.79. For `Cc1cc2ccccc2cc1C`, the log10 biotransformation half-life (days) was 0.03. `COc1cc(Cl)c(Cl)cc1Cl` gave a log10 BCF of 2.81. `Cc1cc(-c2ccc(N)c(C)c2)ccc1N` gave a log10 BCF of 1.67. Compound `Clc1ccccn1` has a log10 BCF of 1.28 and a log10 biotransformation half-life (days) of -0.85. For `CCc1cccc(CC)c1N(COC)C(=O)CCl`, the log10 BCF was 1.12 and the log10 biotransformation half-life (days) was -1.1. Work on `O=C(O)c1ccc2cc(C(=O)O)ccc2c1` yielded a log10 BCF of 0.81. With `O=C(O)c1ccc(C(=O)O)nc1` the log10 BCF was 0.76. Work on `C=CC(=C)C` yielded a log10 BCF of 1.3 and a log10 biotransformation half-life (days) of -0.61. For `CCCCCl`, the log10 BCF was 1.23 and the log10 biotransformation half-life (days) was -0.45.
